Legend:
[1] = system: collagen II induced arthritis; assay: Antiarthritic activity, collagen II induced arthritis in mice model; format: in vivo, DBA/1LacJ female mice; conditions: 20 mg/Kg/day; orally once daily, day 1 through day 42
Description: The antiarthritic activity can be determined in the collagen II induced arthritis in mice model. DBA/1LacJ female mice, 6-8 weeks old, are immunized with 100 μg of chicken type II collagen emulsified in Freund's complete adjuvant (FCA) by injecting at the base of the tail on day 0. On day 17 after collagen injection, the immune response to type II collagen is boosted with a subcutaneous injection of 200 μg LPS solubilized in PBS. Paws are examined on days 17, 21, 24, 28, 31, 35, and 42 and scored for the symptoms of arthritis based on criteria such as inflammation, swelling and ankylosis. Compounds are suspended in corn starch vehicle and administered orally to mice once daily beginning on day 1 and continuing through day 42.

CCRF-CEM cells = assay: CCRF-CEM cell assay: potentiation of the cell growth inhibitory activity (cytotoxicity) of 2'-deoxyguanosine (d-Guo); format: cell-based; conditions: Homo sapiens, d-Guo 10 μM, 72 hours
Description: The selective suppression of spontaneous T-cell proliferation in vitro is measured by the potentiation of the cell growth inhibitory activity (cytotoxicity) of 2'-deoxyguanosine (d-Guo) by the compounds of the invention, determined as follows: Human CCRF-CEM cells are grown in RPMI-1640 medium. To suspension cultures of these cells, d-Guo at a fixed concentration (10 μM) and the candidate PNP inhibitor at varied concentrations are added and the number of cells are determined in a Coulter counter 24, 48, and 72 hours thereafter. […] This method is similar to that previously used to determine the effectiveness of PNP inhibitors on potentiation of the toxicity of d-Guo. [See D. A. Shewach et al., Cancer Res., 46, 519 (1986); J. C. Sircar et al., Agents and Actions, 21, 253 (1987), also Methods in Pharmacology, D. M. Paten, ed. 1985, pp. 147-162].

transplant rejection = assay: Protection against transplant rejection, mouse tail skin transplantation procedure; format: in vivo, mouse (C57BL/10-SnJ and B10.BR/SgSnJ)
Source text: Protection against transplant rejection can be determined in a mouse tail skin transplantation procedure.
Mice are anesthetized with tribromoethanol i.p. injection according to the method of Papaioannou and Fox (Lab. Animal Science 1993;43:189-92). The mouse tail skin transplant rejection model is a modification of that described by Baily and Usama, (Transpl. Bull. 1960;7:424-5). Four skin grafts per mouse are exchanged between strains [C57BL/10-SnJ (H-2K^b) and B10.BR/SgSnJ (H-2K^k)] at surgery (d0). Fitted skin grafts are made with a scalpel, and tail graft sites are protected with tubing for 2 days following surgery. Mouse tails are evaluated at day 7 for missing grafts. Only those graft sites that have patent grafts at day 7 are evaluated at later scoring intervals. Grafts are scored numerically for signs of rejection at ~weekly scoring intervals starting day 14. Dose-group mean graft scores are compared statistically.

[2] = system: purine nucleoside phosphorylase (PNP); assay: PNP inhibition in vivo: plasma inosine level in mice after oral dose; conditions: at a dose of e.g. 10 mg/Kg p.o.
Description: Briefly, mice are treated orally with the PNP inhibitor suspended in fortified cornstarch (3% cornstarch suspension in water with 0.33% Tween 80 and 5% PEG 400) at a final volume of 10 ml/kg. One or more hours after a single oral dose of compound, the mice are bled by cardiac puncture into 25 U/ml heparin to obtain plasma. The samples are analyzed for both inosine and drug levels by a gradient reverse-phase high performance liquid chromatography (HPLC) method (see Anal Chem, 1977, 49:2237-41). Quantitation is performed using an internal standard method with 2',3'-dideoxyinosine (DDI) as the internal standard.

[3] = biological target: T1, purine nucleoside phosphorylase (PNP) (Bos taurus, UniProt P55859); assay: PNP inhibition in vitro, enzymic determination of inorganic phosphate (PNP/xanthine oxidase), calf spleen PNP; format: biochemical; conditions: 1 mM phosphate concentration; calf spleen PNP; substrate inosine
T1 construct: Calf spleen PNP is used as the enzyme source; from tissue; host or cells: calf spleen
T1 sequence (P55859 1-289): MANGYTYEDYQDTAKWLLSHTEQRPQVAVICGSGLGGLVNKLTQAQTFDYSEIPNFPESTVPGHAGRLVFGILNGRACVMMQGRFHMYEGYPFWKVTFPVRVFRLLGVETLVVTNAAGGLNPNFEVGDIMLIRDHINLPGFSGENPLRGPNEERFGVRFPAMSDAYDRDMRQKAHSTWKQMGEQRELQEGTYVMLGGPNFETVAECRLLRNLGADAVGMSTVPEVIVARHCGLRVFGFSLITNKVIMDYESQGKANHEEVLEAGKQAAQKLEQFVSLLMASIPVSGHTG
Description: PNP inhibition can be measured by measuring the formation of [^14- C]-[…] [Biomedicine, 33, 39 (1980)] using calf spleen as the enzyme source and 1 or 50 mM phosphate. Results are expressed as IC50 values, corresponding to the concentration of compound required to achieve a 50% reduction of the formation of hypoxanthine.
PNP inhibition can also be determined in vitro as follows: An enzymic method for the determination of inorganic phosphate (see Chem. Pharm. Bull., 1981, 29:1451-5), based on the principle of forming hydrogen peroxide with purine nucleoside phosphorylase (PNP) and xanthine oxidase, is used to calorimetrically measure the degree of linkage between enzyme and substrate (inosine). Calf spleen PNP is used as the enzyme source. The IC50 values for the compounds studied are determined graphically at two phosphate concentrations (1 and 50 mM) from a plot of percent inhibition versus compound concentration.

In the case of `Nc1nc2c([C@@H](CO)c3ccccc3F)c[nH]c2c(=O)[nH]1` [Example 1, 2-amino-7-[1-(2-fluorophenyl)-2(R)-hydroxyethyl]-3,5-dihydro-4H-pyrrolo[3,2-d]pyrimidin-4-one], the antiarthritic activity [1] is reported as “effective”, the IC50 (CCRF-CEM cells) is reported as roughly 75 nM and the “protection against transplant rejection” value (transplant rejection; 50 mg/Kg/day, mouse) is reported as “effective in protecting against transplant rejection”. The “transplant rejection model, combination with cyclosporin” value (transplant rejection; combination of compound and cyclosporin vs either alone) was “superior to either cyclosporin or the PNP inhibitor alone”, the “plasma level of inosine” value [2] was “significant increase in the plasma level of inosine” and the IC50 [3] was roughly 10 nM.

In the case of `Nc1nc2c([C@@H](CO)c3ccccc3)c[nH]c2c(=O)[nH]1` [Example 3f, 2-Amino-7-(2(S)-hydroxy-1-phenylethyl)-3,5-dihydro-4H-pyrrolo[3,2-d]-pyrimidin-4-one], the IC50 (CCRF-CEM cells) is reported as roughly 100 nM, the “plasma level of inosine” value [2] is reported as “significant increase in the plasma level of inosine” and the IC50 [3] is reported as roughly 10 nM.

Reference: US6043365A, “Preparation of 2-amino-7-(1-substituted-2-hydroxyethyl)-3, 5-dihydropyrrolo[3,2-d]pyrimidin-4-ones” (Novartis AG, priority 1998, dated 2000)
